# Measurements reported in ChEMBL document CHEMBL3994622, “Design and synthesis of new RAF kinase-inhibiting antiproliferative quinoline derivatives. Part 2: Diarylurea derivatives” (Eur J Med Chem, 2017).
# Key:
# [1] = tested on: MDA-MB-435; assay: Growth inhibition of human MDA-MB-435 cells incubated for 48 hrs by sulforhodamine B assay; format: functional; conditions: MDA-MB-435, 48 h
# [2] = tested on: RPMI-8226; assay: Growth inhibition of human RPMI8226 cells incubated for 48 hrs by sulforhodamine B assay; format: functional; conditions: RPMI-8226, 48 h
# [3] = tested on: UACC-257; assay: Growth inhibition of human UACC257 cells incubated for 48 hrs by sulforhodamine B assay; format: functional; conditions: UACC-257, 48 h
# [4] = tested on: NCI-H23; assay: Growth inhibition of human NCI-H23 cells incubated for 48 hrs by sulforhodamine B assay; format: functional; conditions: NCI-H23, 48 h
# [5] = tested on: BT-549; assay: Growth inhibition of human BT549 cells incubated for 48 hrs by sulforhodamine B assay; format: functional; conditions: BT-549, 48 h
# [6] = tested on: SNB-19; assay: Growth inhibition of human SNB19 cells incubated for 48 hrs by sulforhodamine B assay; format: functional; conditions: SNB-19, 48 h
# [7] = tested on: NCI-H322M; assay: Growth inhibition of human NCI-H322M cells incubated for 48 hrs by sulforhodamine B assay; format: functional
# [8] = tested on: HT-29; assay: Growth inhibition of human HT-29 cells incubated for 48 hrs by sulforhodamine B assay; format: functional; conditions: HT-29, 48 h
# [9] = tested on: DU-145; assay: Growth inhibition of human DU145 cells incubated for 48 hrs by sulforhodamine B assay; format: functional; conditions: DU-145, 48 h
# [10] = tested on: IGROV-1; assay: Growth inhibition of human IGROV1 cells incubated for 48 hrs by sulforhodamine B assay; format: functional; conditions: IGROV-1, 48 h
# [11] = tested on: SF-295; assay: Growth inhibition of human SF295 cells incubated for 48 hrs by sulforhodamine B assay; format: functional; conditions: SF-295, 48 h
# [12] = tested on: OVCAR-4; assay: Growth inhibition of human OVCAR4 cells incubated for 48 hrs by sulforhodamine B assay; format: functional; conditions: OVCAR-4, 48 h
# [13] = tested on: A498; assay: Growth inhibition of human A498 cells incubated for 48 hrs by sulforhodamine B assay; format: functional; conditions: A498, 48 h
# [14] = tested on: KM12; assay: Growth inhibition of human KM12 cells incubated for 48 hrs by sulforhodamine B assay; format: functional; conditions: KM12, 48 h
# [15] = tested on: NCI-H460; assay: Growth inhibition of human NCI-H460 cells incubated for 48 hrs by sulforhodamine B assay; format: functional; conditions: NCI-H460, 48 h
# [16] = tested on: NCI-H522; assay: Growth inhibition of human NCI-H522 cells incubated for 48 hrs by sulforhodamine B assay; format: functional; conditions: NCI-H522, 48 h
# [17] = tested on: SR; assay: Growth inhibition of human SR cells incubated for 48 hrs by sulforhodamine B assay; format: functional
# [18] = tested on: HOP-92; assay: Growth inhibition of human HOP92 cells incubated for 48 hrs by sulforhodamine B assay; format: functional; conditions: HOP-92, 48 h
# [19] = tested on: SK-MEL-5; assay: Growth inhibition of human SK-MEL-5 cells incubated for 48 hrs by sulforhodamine B assay; format: functional; conditions: SK-MEL-5, 48 h
# [20] = tested on: 786-0; assay: Growth inhibition of human 786-0 cells incubated for 48 hrs by sulforhodamine B assay; format: functional; conditions: 786-0, 48 h
# [21] = tested on: RXF 393; assay: Growth inhibition of human RXF393 cells incubated for 48 hrs by sulforhodamine B assay; format: functional; conditions: RXF 393, 48 h
# [22] = tested on: SN12C; assay: Growth inhibition of human SN12C cells incubated for 48 hrs by sulforhodamine B assay; format: functional
# [23] = molecular target: RAF proto-oncogene serine/threonine-protein kinase (Homo sapiens, UniProt P04049); assay: Inhibition of human c-RAF using MEK1 as substrate in presence of [33P]ATP by Hotspot assay
# [24] = tested on: NCI/ADR-RES; assay: Growth inhibition of human NCI/ADR-RES cells incubated for 48 hrs by sulforhodamine B assay; format: functional
# [25] = tested on: NCI-H226; assay: Growth inhibition of human NCI-H226 cells incubated for 48 hrs by sulforhodamine B assay; format: functional; conditions: NCI-H226, 48 h
# [26] = tested on: SK-MEL-28; assay: Growth inhibition of human SK-MEL-28 cells incubated for 48 hrs by sulforhodamine B assay; format: functional; conditions: SK-MEL-28, 48 h
# [27] = tested on: ACHN; assay: Growth inhibition of human ACHN cells incubated for 48 hrs by sulforhodamine B assay; format: functional
# [28] = tested on: SK-OV-3; assay: Growth inhibition of human SKOV3 cells incubated for 48 hrs by sulforhodamine B assay; format: functional; conditions: SK-OV-3, 48 h
# [29] = tested on: Hs-578T; assay: Growth inhibition of human Hs 578T cells incubated for 48 hrs by sulforhodamine B assay; format: functional
# [30] = tested on: U-251; assay: Growth inhibition of human U251 cells incubated for 48 hrs by sulforhodamine B assay; format: functional; conditions: U-251, 48 h
# [31] = tested on: EKVX; assay: Growth inhibition of human EKVX cells incubated for 48 hrs by sulforhodamine B assay; format: functional
# [32] = tested on: UACC-62; assay: Growth inhibition of human UACC62 cells incubated for 48 hrs by sulforhodamine B assay; format: functional; conditions: UACC-62, 48 h
# [33] = read-out: LC50 (the source's name)
# RAF proto-oncogene serine/threonine-protein kinase, sequence (P04049 whole entry): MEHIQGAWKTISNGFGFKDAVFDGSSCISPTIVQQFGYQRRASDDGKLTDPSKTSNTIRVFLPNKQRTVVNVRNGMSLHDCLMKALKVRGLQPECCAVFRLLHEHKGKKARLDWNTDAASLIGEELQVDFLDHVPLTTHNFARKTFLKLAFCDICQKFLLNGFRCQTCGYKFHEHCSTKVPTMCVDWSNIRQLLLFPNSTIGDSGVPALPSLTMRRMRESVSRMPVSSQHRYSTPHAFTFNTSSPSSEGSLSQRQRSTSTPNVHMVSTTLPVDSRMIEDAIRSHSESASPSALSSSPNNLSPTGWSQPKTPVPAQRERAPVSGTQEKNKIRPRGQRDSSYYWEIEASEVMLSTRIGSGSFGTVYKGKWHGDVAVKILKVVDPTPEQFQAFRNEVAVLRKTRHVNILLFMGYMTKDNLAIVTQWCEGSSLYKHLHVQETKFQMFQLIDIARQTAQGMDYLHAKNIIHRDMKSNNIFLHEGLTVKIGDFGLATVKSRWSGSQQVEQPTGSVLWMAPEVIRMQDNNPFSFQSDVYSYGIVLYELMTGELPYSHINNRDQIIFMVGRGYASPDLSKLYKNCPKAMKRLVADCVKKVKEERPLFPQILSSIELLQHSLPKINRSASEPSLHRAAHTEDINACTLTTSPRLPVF
smiles,measurement,setting,value
COc1cc2cc(Oc3ccc(NC(=O)Nc4ccc(Cl)c(Cl)c4)cc3)c(C)nc2cc1OC,GI50,[1],3.09 µM
same,TGI,[1],16.8 µM
same,CC50,[1]; [33],> 100 µM
same,GI50,[2],1.62 µM
same,"LC50 (lethal concentration, 50% cell kill)",[2],> 100 µM
same,TGI,[2],5.73 µM
same,GI50,[3],2.31 µM
same,TGI,[3],6.28 µM
same,CC50,[3]; [33],24.4 µM
same,GI50,[4],3.36 µM
same,TGI,[4],15.9 µM
same,CC50,[4]; [33],76.3 µM
same,GI50,[5],2.4 µM
same,TGI,[5],11.7 µM
same,CC50,[5]; [33],51.6 µM
same,GI50,[6],4.26 µM
same,TGI,[6],24 µM
same,CC50,[6]; [33],> 100 µM
same,GI50,[7],8.66 µM
same,TGI,[7],60.3 µM
same,CC50,[7]; [33],> 100 µM
same,GI50,[8],2.34 µM
same,TGI,[8],4.89 µM
same,CC50,[8]; [33],10.6 µM
same,GI50,[9],4.27 µM
same,TGI,[9],17.1 µM
same,CC50,[9]; [33],68.4 µM
same,GI50,[10],5.61 µM
same,TGI,[10],46.1 µM
same,CC50,[10]; [33],> 100 µM
same,GI50,[11],1.96 µM
same,TGI,[11],6.08 µM
same,CC50,[11]; [33],67.7 µM
same,GI50,[12],2.67 µM
same,TGI,[12],8.3 µM
same,CC50,[12]; [33],35.2 µM
same,GI50,[13],1.95 µM
same,TGI,[13],7.93 µM
same,CC50,[13]; [33],74.9 µM
same,GI50,[14],3.22 µM
same,TGI,[14],13.4 µM
same,CC50,[14]; [33],74.7 µM
same,GI50,[15],2.46 µM
same,TGI,[15],10.1 µM
same,CC50,[15]; [33],45.8 µM
same,GI50,[16],1.74 µM
same,TGI,[16],8.43 µM
same,CC50,[16]; [33],59.5 µM
same,GI50,[17],3.1 µM
same,TGI,[17],10.3 µM
same,CC50,[17]; [33],> 100 µM
same,GI50,[18],2.04 µM
same,LC50,[18],14.2 µM
same,TGI,[18],4.88 µM
same,GI50,[19],2.58 µM
same,TGI,[19],8.09 µM
same,CC50,[19]; [33],30.8 µM
same,GI50,[20],3.64 µM
same,TGI,[20],17.7 µM
same,CC50,[20]; [33],65.2 µM
same,GI50,[21],4.28 µM
same,TGI,[21],16.7 µM
same,CC50,[21]; [33],65.7 µM
same,GI50,[22],3.39 µM
same,TGI,[22],20.5 µM
same,CC50,[22]; [33],> 100 µM
same,IC50,[23],0.22 µM
same,GI50,[24],2.6 µM
same,TGI,[24],16.9 µM
same,CC50,[24]; [33],> 100 µM
same,GI50,[25],3.12 µM
same,TGI,[25],8.68 µM
same,CC50,[25]; [33],35.8 µM
same,GI50,[26],3.77 µM
same,TGI,[26],14.7 µM
same,CC50,[26]; [33],51.2 µM
same,GI50,[27],3 µM
same,TGI,[27],12.1 µM
same,CC50,[27]; [33],69.1 µM
same,GI50,[28],7.56 µM
same,TGI,[28],26.4 µM
same,CC50,[28]; [33],84.8 µM
same,GI50,[29],3.53 µM
same,TGI,[29],9.68 µM
same,CC50,[29]; [33],> 100 µM
same,GI50,[30],2.19 µM
same,TGI,[30],7.26 µM
same,CC50,[30]; [33],26.5 µM
same,GI50,[31],2.36 µM
same,LC50 (concentration killing 50% of cells),[31],> 100 µM
same,TGI,[31],9.51 µM
same,GI50,[32],3.33 µM
same,TGI,[32],19.2 µM
same,CC50,[32]; [33],71.2 µM
